Results as given in the NIST ThermoML archive (doi:10.1016/j.fluid.2004.12.013).
Numbers after ± are expanded uncertainties.

Test: excess molar enthalpy (molar enthalpy of mixing); xn = mol fraction of the nth substance listed
Details: 298.15 K, 101.3 kPa, Liquid

CCCCCCCCC [nonane] + COC(C)(C)C
Details | excess molar enthalpy [kcal/mol]
x2 = 0.0816 | 0.0313 ± 0.00167
x2 = 0.1472 | 0.0538 ± 0.00239
x2 = 0.1747 | 0.0633 ± 0.00287
x2 = 0.2383 | 0.0825 ± 0.00335
x2 = 0.2404 | 0.0825 ± 0.00335
x2 = 0.3312 | 0.102 ± 0.00406
x2 = 0.3912 | 0.109 ± 0.0043
x2 = 0.4867 | 0.116 ± 0.00454
x2 = 0.6601 | 0.104 ± 0.0043
x2 = 0.7157 | 0.0937 ± 0.00382
x2 = 0.7399 | 0.0887 ± 0.00359
x2 = 0.7773 | 0.0805 ± 0.00335
x2 = 0.8129 | 0.0729 ± 0.00311
x2 = 0.8723 | 0.0552 ± 0.00239
x2 = 0.895 | 0.0478 ± 0.00215
x2 = 0.9235 | 0.0413 ± 0.00191
x2 = 0.9285 | 0.0337 ± 0.00167
x2 = 0.9459 | 0.0301 ± 0.00167
x2 = 0.9573 | 0.0249 ± 0.00143
x2 = 0.9632 | 0.0196 ± 0.00143

CCCCCCCCC [nonane] + CCCCCO
Details | excess molar enthalpy [kcal/mol]
x2 = 0.0545 | 0.0989 ± 0.00406
x2 = 0.0997 | 0.123 ± 0.00478
x2 = 0.1605 | 0.141 ± 0.0055
x2 = 0.2245 | 0.155 ± 0.00598
x2 = 0.2862 | 0.163 ± 0.00621
x2 = 0.3535 | 0.166 ± 0.00621
x2 = 0.4025 | 0.165 ± 0.00621
x2 = 0.4455 | 0.164 ± 0.00621
x2 = 0.4998 | 0.16 ± 0.00621
x2 = 0.5489 | 0.152 ± 0.00574
x2 = 0.6006 | 0.142 ± 0.0055
x2 = 0.6527 | 0.129 ± 0.00502
x2 = 0.7058 | 0.112 ± 0.00454
x2 = 0.7524 | 0.098 ± 0.00406
x2 = 0.7962 | 0.0789 ± 0.00335
x2 = 0.8478 | 0.0614 ± 0.00263
x2 = 0.8935 | 0.0411 ± 0.00191
x2 = 0.9382 | 0.0206 ± 0.00143
